Experimental data from PubChem BioAssay AID179 (DTP/NCI, 2004).
Several values for one entry are separate records, joined by “and”; a condition that tells them apart may be missing. Identical values can stand only once. Activity calls are given as the source filed them.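 How the source made its calls: active means compounds giving half or more protection of infected cells from virus-caused growth loss, again on retest; inactive means the rest.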 Where a SMILES comes first, the peptide text is derived from it. The star is where a group is joined. Cbz = O=C(OCc1ccccc1)*; NHNH2 = NN*

Tested on: CEM cells HIV-1 protection, formazan growth assay
Test: NCI AIDS Antiviral Assay
Conditions: for IC50: measured here: growth of uninfected CEM cells
Summary of the method: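 Screen of anti-HIV-1 activity in human CEM cells using a formazan-based growth measurement at five drug concentrations. Hits with 50% or greater protection were repeated, and confirmation required reproducible complete protection.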

Row | Structure (SMILES) | EC50 | IC50 | outcome
1 | CC(C)(C)C1CCC2c3c([nH]c4ccccc34)C3C(=O)N(c4cccc([N+](=O)[O-])c4)C(=O)C3C2C1 (configuration not stated) | > 200 µM | 4.79 µM | 
2 | O=[N+]([O-])c1ccc2nc(/C=C(\O)c3ccc(Cl)cc3)c(/C=C(\O)c3ccc(Cl)cc3)nc2c1 | > 200 µM | 89.1 µM | 
3 | CC(=O)C(C(=O)C(=O)Nc1cc(Cl)c(Cl)cc1Cl)c1csc(N)n1 (configuration not stated) | > 229 µM | > 229 µM | 
4 | CO/C=N/c1cn2c(n1)CN=C2 | > 200 µM | > 200 µM | 
5 | c1ccc(-c2c3ccccc3[o+]c3ccccc23)cc1 | > 200 µM | 33.1 µM | 
6 | OC1(C2(O)CCC2)CCC1 | > 200 µM | > 200 µM | 
7 | O=S(=O)(O)c1cc2c(c(S(=O)(=O)O)c1)[O][Sb]1([O]2)[O]c2cc(S(=O)(=O)O)cc(S(=O)(=O)O)c2[O]1 | > 324 µM | > 324 µM | 
8 | COCc1nc(C#N)c(N)o1 | > 200 µM | > 200 µM | 
9 | CC(C)(C)OC(=O)c1ccc(NCC2=C(Br)C(=O)C=CC2=O)cc1 | > 200 µM | 11.5 µM | 
10 | CC(CC12CCC3(OO1)C(C)(C)CCCC3(C)O2)OC(=O)c1ccccc1 (configuration not stated) | > 200 µM | 18.2 µM | 
11 | O=c1oc2cc(O)ccc2c(O)c1C(c1ccc(C(c2c(O)c3ccc(O)cc3oc2=O)c2c(O)c3ccc(O)cc3oc2=O)cc1)c1c(O)c2ccc(O)cc2oc1=O | > 200 µM | 91.2 µM | 
12 | CCCCCCCC(=O)[O-].N.N.N.N.N.[Co+3].[O-][Cl+3]([O-])([O-])[O-] |  |  | inactive
13 | O=C(NC1C=Nc2ccc(Cl)cc2NC1=O)c1ccccc1Cl (configuration not stated) | > 200 µM | 123 µM | 
14 | Cc1ccc(C)n1-n1c2ccccc2c2ccccc21 | > 100 µM | > 100 µM | 
15 | COC(=O)Cc1c(C2=Nc3ccccc3C2(O)CC(=O)OC)[nH]c2ccccc12 (configuration not stated) | > 200 µM | 91.2 µM | 
16 | Cc1c2ccncc2c(C)c2c1[nH]c1ccc(F)cc12 | > 200 µM | 0.437 µM | 
17 | CC(=O)CC(C)=O.CC(=O)CC(C)=O.[O]=[V] |  |  | inactive
18 | CC(C)CC(NC(=O)C(CO)NC(=O)OCc1ccccc1)C(=O)NC(Cc1ccc(O)cc1)C(=O)NN (stereo not drawn) (Cbz-Ser-Leu-Tyr-NHNH2; configuration not given here) |  |  | inactive
19 | O=C1CNC(=O)c2c(ncn2C2OC(CO)CC2O)N1 (configuration not stated) | > 302 µM | > 302 µM | 
20 | CCN(C(=O)N[C@H](C(=O)N[C@@H](CSC)C(=O)N[C@@H](C)C(=O)OC)C(C)C)c1ccccc1 |  |  | inactive
21 | COC1=C(C)C(=O)c2nc(C)ccc2C1=O |  |  | inactive
22 | O=C(O)C(CP(=O)(O)O)=C(Cl)Cl | > 741 µM | > 741 µM | 

Row | Structure (SMILES) | EC50 | IC50 | outcome
23 | CCCCc1c2c(nc3c1CC/C(=C\c1ccc([N+](=O)[O-])cc1)C3=O)CCCC2 | > 6.92 µM | 1.32 µM | 
24 | CC/C(=N/OC(=O)N(C)C)c1ccccc1 | > 200 µM | > 200 µM | 
25 | CC(C)N(C(=O)c1cccc(C(=O)N(C(C)C)C(C)C)c1)C(C)C | > 759 µM | 468 µM | 
26 | CCC(c1ccc(OC)cc1)C1NC(=S)NC1=O (configuration not stated) | > 200 µM | 31.6 µM | 
27 | Cn1cc(NC(=O)c2cc(N)nn2C)cc1C(=O)Nc1ccc2cc(S(=O)(=O)O)cc(S(=O)(=O)O)c2c1 | > 200 µM | > 200 µM | 
28 | O=C(CSc1nnc(Cc2ccccc2)o1)Nc1ccc(Cl)cc1 | > 100 µM | 72.4 µM | 
29 | Nc1ccn(C2CC(F)C(CO)O2)c(=O)n1 (configuration not stated) | 0.148 µM | 427 µM | 
30 | CC1(C)CCCC2C1=NOC2O (configuration not stated) | > 1480 µM | > 1480 µM | 
31 | Cc1ccc(C)c(NC(=O)/C(=N\NC(N)=S)C(C#N)c2ccccc2)c1 (configuration not stated) | > 19.5 µM | > 19.5 µM | 
32 | C=C[C@]1(C)CC(O)C2C(=C)C(=O)OC2[C@H]1C(=C)C=O (some centres not stated) | > 200 µM | 3.31 µM | 
33 | CC(C)NC(=O)CNC(=O)c1ccccc1SC(=O)CCCC[n+]1ccccc1 | > 0.575 µM |  | 
34 | Cc1cccc(C)c1NC(=O)/C(=N/NC(N)=S)C(C)C(=O)c1ccc(Cl)cc1 (configuration not stated) | > 44.7 µM | > 44.7 µM | 
35 | CCOP12(OCC)NC(=O)OC1(C(F)(F)F)c1ccccc1O2 (configuration not stated) | > 141 µM | > 141 µM | 
36 | CCCCCCCCCCCCCCCC(=O)OC(CC(=O)O)C[N+](C)(C)C (configuration not stated) |  |  | inactive
37 | O=[N+]([O-])C(=C(Nc1ccccc1)Nc1ccccc1)C(Cl)=C(Cl)Cl | > 200 µM | 17.4 µM | 
38 | NC(=O)CCC(CCC(N)=O)(CCC(N)=O)[N+](=O)[O-] | > 200 µM | > 200 µM | 
39 | O=CN/C=C/c1cc(O)ccc1O | > 79.4 µM | 4.57 µM | 
40 | COc1ccccc1C(C1=C(O)COC1=O)c1cc2c(cc1OC(C)=O)OCO2 (configuration not stated) | > 200 µM | > 200 µM | 
41 | CCCC1c2c(cc(=O)[nH]c2O)C(=O)N1Cc1ccccc1 (configuration not stated) | > 63.1 µM | > 63.1 µM | 
42 | Cc1nc2c(n1-c1ccc(Br)cc1)C(=O)c1ccccc1C2=O | > 49 µM | 5.25 µM | 
43 | CCOC(=O)c1ccc(CS(=O)c2ccc(OC)cc2)c([N+](=O)[O-])c1 (configuration not stated) | > 100 µM | 12.3 µM | 
44 | CN(C)c1ccc(C2N(C)CCN2C)cc1 | > 200 µM | > 200 µM | 

Row | Structure (SMILES) | EC50 | IC50 | outcome
45 | CC(=O)O[C@H]1CC[C@@]2(C)C(=CC[C@@H]3C2CC[C@]2(C)Nc4nc5ccccc5cc4CC32)C1 (some centres not stated) |  |  | inactive
46 | CCOC(=O)NC(Nc1ccc([N+](=O)[O-])cc1)(C(F)(F)F)C(F)(F)F | > 200 µM | 66.1 µM | 
47 | Cc1ccc(S(=O)(=O)c2ccc(NC(=O)SCCC(=O)O)cc2)cc1 |  |  | inactive
48 | CCOC(OC(C)=O)[C@@H]1C=C[C@H](C)N(c2ccc([N+](=O)[O-])cc2)O1 (some centres not stated) | > 40.7 µM | 2.24 µM | 
49 | O=C(N/N=C/c1ccccc1S(=O)(=O)O)C(=O)N/N=C/c1ccccc1S(=O)(=O)O | > 200 µM | > 200 µM | 
50 | NNC(=O)N/N=C1/C(=O)N(c2ccc(Cl)c(Cl)c2)C(=O)C(=O)C1c1nc2ccccc2o1 (configuration not stated) |  |  | inactive
51 | CCC/C(Cl)=N/OC(=O)Nc1cccc(F)c1 | > 20 µM | 3.16 µM | 
52 | CN(C)CC1CCCCCCCCCCC1=O (configuration not stated) | > 200 µM | 117 µM and 93.3 µM | 
53 | CC1c2c(cc(=O)n(Cc3ccccc3)c2O)C(=O)N1Cc1ccccc1 (configuration not stated) | > 72.4 µM | 61.7 µM | 
54 | O=C1CCC(N2C(=O)C3C4c5ccccc5C(c5ccccc54)C3C2=O)C(=O)N1 (configuration not stated) | > 200 µM | > 200 µM | 
55 | CCOc1ccccc1NC(=O)CCc1nnc2s/c(=C\CCc3ccccc3)c(=O)n12 | > 79.4 µM | > 79.4 µM | 
56 | O=C1c2ccccc2C(=O)N1CC(CN1C(=O)c2ccccc2C1=O)(C(=O)OCc1ccccc1)C(=O)OCc1ccccc1 | > 200 µM | > 200 µM | 
57 | Cn1c2ccc([N+](=O)[O-])cc2c(=O)c2c(O)cc(O)cc21 | > 200 µM | 19.1 µM | 
58 | CC(O)C(NC(=O)C(CCCCN)NC(=O)C(CC(=O)O)NC(=O)C(N)Cc1ccccc1)C(=O)NC(CO)C(=O)NC(CC(N)=O)C(=O)NC(CO)C(=O)N1CCCC1C(=O)NC(Cc1ccc(O)cc1)C(=O)NC(Cc1cnc[nH]1)C(=O)NC(Cc1ccccc1)C(=O)O (configuration not stated) (H-FDKTSNSPYHF-OH; configuration not given here) | > 46.8 µM | > 46.8 µM | 
59 | CCOC(=O)/C=C/SCCNC(=O)OCC | > 204 µM | 120 µM | 
60 | Cc1cc(C)c(S(=O)(=O)N(CCCN)OCCCN)c(C)c1 | > 200 µM | 195 µM | 
61 | CN(N)c1cc(=O)[nH]c(=O)[nH]1 | > 200 µM | > 200 µM | 
62 | CN1N(c2ccccc2)C(=O)C2=NC=C(C#N)C(=N)C21C (configuration not stated) | > 200 µM | 64.6 µM | 
63 | COC(=O)C12CCCN1CCC2 | 26.3 µM | > 200 µM | 
64 | COc1ccc2c(c1)c(OC)c(CC(O)C(C)(C)O)c(=O)n2C (configuration not stated) | > 200 µM | > 200 µM | 
65 | c1ccc2[nH]c(CSc3nc4ccccc4[nH]3)nc2c1 | > 200 µM | > 200 µM | 
66 | Nc1nc2c(c(=O)[nH]1)N(C=O)C(CNc1ccc(C(=O)N[C@@H](CCC(=O)O)C(=O)O)cc1)CN2 (some centres not stated) | > 200 µM | > 200 µM | 

Row | Structure (SMILES) | EC50 | IC50 | outcome
67 | COc1ccc(/C(CCl)=C(\Nc2ccccc2)c2ccc(OC)c(OC)c2)cc1OC | > 200 µM | > 200 µM | 
68 | O=S(O)CCCSSc1ccccc1 |  |  | inactive
69 | Cc1nc2ccc(C(F)(F)F)cc2nc1Nc1ccc(Cl)c(Cl)c1 | > 17.8 µM | 11.5 µM | 
70 | CCC1(CC)O[C@H]([C@@H](O)CCc2ccccc2O)[C@@H]([C@@H](O)CCc2ccccc2O)O1 | > 200 µM | 33.1 µM | 
71 | O=C(OC1CCC(=C2SCCCS2)[C@H]1C1SCCCS1)c1ccccc1 (some centres not stated) |  |  | inactive
72 | CN1C=C(C(N)=O)Cc2ccsc21 | > 1290 µM | 66.1 µM | 
73 | COC(=O)CSc1[nH]c2nc(C)nc(Nc3ccccc3)c2c1C#N | > 200 µM | > 200 µM | 
74 | C=C(C(=O)O)C1CC[C@@]2(C)CC(O)CC(=C)C2C1 (some centres not stated) | > 200 µM | > 200 µM | 
75 | O=c1c2cncnc2sc2nccn12 | > 200 µM | > 200 µM | 
76 | CC1=C(OC2OC(CO)C(O)C(O)C2O)C(=O)C[C@H]2C1=CC[C@@H]1[C@@]2(C)C(=O)C[C@]2(C)[C@@H]([C@@](C)(O)C(=O)CCC(C)(C)O)[C@H](O)C[C@@]12C (some centres not stated) | > 200 µM | > 200 µM | 
77 | NC(=Nc1ccccc1)N(c1ccccc1)c1nc(=S)ss1 | > 200 µM | 83.2 µM | 
78 | C/C(=N\NC(N)=S)c1ccc(C2CCCCC2)cc1 |  |  | inactive
79 | NC(CSS(=O)(=O)O)=NCc1ccccc1 | > 200 µM | > 200 µM | 
80 | C=C1c2nc3ccccc3n2C=C(c2ccc(C)cc2)N1c1ccc(OC)cc1 | > 200 µM | 11.5 µM | 
81 | C[CH2][Sn]([CH2]C)([O]C(=O)c1ccc(F)cc1)[O][Sn]([CH2]C)([CH2]C)[O]C(=O)c1ccc(F)cc1 | > 8.13 µM | 6.61 µM | 
82 | O=C(c1ccccc1)c1ccc(OCCOc2ccc(Nc3ccccc3)cc2)cc1 | > 6.61 µM | > 6.61 µM | 
83 | CC(CCc1nc2ccccc2o1)C1CCC2C3CC[C@@H]4C[C@H](O)CC[C@]4(C)C3CC[C@]12C (some centres not stated) | > 50.1 µM | 17.4 µM | 
84 | NC(=O)c1ccccc1NC(=O)C(=O)Cc1nc2ccccc2[nH]c1=O | > 269 µM | > 269 µM | 
85 | O=C1O[C@H](COC(=O)c2ccccc2)[C@@H](OC(=O)c2ccccc2)C=C1OC(=O)c1ccccc1 | > 200 µM | 20.4 µM | 
